The values that follow come from patent publication US12679878B2, “CRF2 receptor agonists and their use in therapy” (SANOFI, priority 2020, dated 2026).

Data set [1] is described as follows: Physical stability, dynamic light scattering assay (Example 15). It is filed as physicochemical. The conditions noted are these: for Apparent Rh [nm] 4 weeks / Scattering Intensity (I) [%] 4 weeks: 4 weeks at 40° C. The method in brief: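 DLS at 837 nm, 150° angle, +25° C; Rh, scattering intensity and mass contribution measured at 0 weeks and after 4 weeks at 40° C. Rh and D compared at 1, 5 and 10 mg/ml as kD surrogate; separate measurements at 300 μM, purity-corrected.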

Data set [2] deals with rat CRF2R α receptor. Nature of the data set: cAMP agonism at rat CRF2R α receptor in A7R5 rat aortic smooth muscle cells (Example 8). The class given is cell-based. The settings on record: cAMP HTRF, A7R5 rat aortic smooth muscle cell line, 0% HSA. The method in brief: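 Thawed cryopreserved A7R5 cells in HBSS/20 mM HEPES (0 or 0.1% HSA) with 2 mM IBMX, 2000 cells/well, were exposed to compound for 30 min at room temperature. cAMP was read by HTRF (665/620 nm ratio) after 1 h with lysis reagents. Activity was normalised to 1000 nM urocortin 2 as 100%, and EC50 was taken as the concentration giving 50% of maximal activation.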
A general note: TR-FRET usually uses a lanthanide donor and a delayed reading to cut background.

Data set [3] in a line: Physical stability, Thioflavin T fibrillation assay (Example 14). The conditions noted are these: Buffer B: 100 mM acetate buffer, pH 4.5, 2.7 mg/ml m-cresol; 3 mg/ml; 37° C. shaking. It is filed as physicochemical. Put shortly: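 Compounds at 3 mg/ml final in buffer were stressed at 37° C by repeated cycles of 10 s shaking at 960 rpm and 50 s rest. ThT fluorescence was read every 20 minutes in eight replicates, with fluorescence increase and lag time indicating fibrillation tendency.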

Where [4] appears, read: Buffer A (100 mM acetate, pH 4.5).
Where [5] appears, read: Buffer D (20 mM phosphate, pH 7.4).
Where [6] appears, read: Buffer B (100 mM acetate, pH 4.5, 2.7 mg/ml m-cresol).
Setting [7] is: Buffer E (20 mM acetate, pH 4.5).

Starred links: 1 amine or outer side, 2 acyl side, 3 side chain; linkers in the order of their positions; H or OH if unused. Non-standard residues stand in square brackets, D forms with d. Residues, ends and D or L forms follow the SMILES beside them. Groups on a side chain read outwards from the residue. *: point of attachment. C18 diacid = O=C(O)CCCCCCCCCCCCCCCCC(=O)*; γGlu = O=C(O)[C@H](CCC(=O)[*:2])N[*:1]; AEEA = NCCOCCOCC(=O)O; Aib = CC(C)(N)C(=O)O

Broadly, the EC50 is the concentration giving half of the maximal effect. A low value points to an effect from little substance. `CC[C@H](C)[C@H](N)C(=O)N[C@H](C(=O)N[C@@H](CC(C)C)C(=O)N[C@@H](CO)C(=O)N[C@@H](CC(C)C)C(=O)N[C@@H](CC(=O)O)C(=O)N[C@H](C(=O)N1CCC[C@H]1C(=O)N[C@H](C(=O)N[C@@H](CCCCN)C(=O)N[C@@H](CC(C)C)C(=O)N[C@@H](CCCCNC(=O)COCCOCCNC(=O)COCCOCCNC(=O)CC[C@H](NC(=O)CCCCCCCCCCCCCCCCC(=O)O)C(=O)O)C(=O)N[C@@H](CCCCN)C(=O)N[C@H](C(=O)N[C@@H](CC(C)C)C(=O)N[C@@H](CC(C)C)C(=O)N[C@@H](CCCCN)C(=O)N[C@@H](CCC(N)=O)C(=O)N[C@@H](CCC(=O)O)C(=O)N[C@@H](CCCNC(=N)N)C(=O)N[C@@H](CCC(N)=O)C(=O)N[C@@H](CCCCN)C(=O)N[C@@H](CCCCN)C(=O)NC(C)(C)C(=O)N[C@@H](CCCNC(=N)N)C(=O)N[C@@H](CCC(=O)O)C(=O)N[C@@H](CCC(N)=O)C(=O)N[C@@H](C)C(=O)N[C@@H](CCC(=O)O)C(=O)N[C@@H](CCCCN)C(=O)N[C@@H](CC(N)=O)C(=O)N[C@@H](CCCCN)C(=O)N[C@@H](CCC(N)=O)C(=O)N[C@H](C(=O)N[C@@H](CC(C)C)C(=O)N[C@@H](C)C(=O)N[C@@H](CCC(N)=O)C(=O)N[C@H](C(N)=O)C(C)C)[C@@H](C)CC)[C@@H](C)CC)[C@@H](C)CC)C(C)C)C(C)C` [compound 99] (H-IVLSLDVPIKLK([AEEA-AEEA-γGlu-C18 diacid])KILLKQERQKK[Aib]REQAEKNKQILAQV-NH2): in data set [1] (setting [4]), the “Apparent Rh [nm] 0 weeks” value is given as 3.32 ± 0.18 nm, the “Scattering Intensity (I) [%] 0 weeks” value amounted to 100 ± 1%, the “Apparent Rh [nm] 4 weeks” value is 3.42 ± 0.04 nm and the “Scattering Intensity (I) [%] 4 weeks” value is 99 ± 1%. In addition, the concentration for a half-maximal effect (EC50) in data set [2] worked out at 0.62 nM. Moreover, in data set [3], the “Increase in FI (fluorescence intensity)” value was “No” and the “Lag time” value is on record as above 45 h.
Take `CC[C@H](C)[C@H](N)C(=O)N[C@H](C(=O)N[C@@H](CC(C)C)C(=O)N[C@@H](CO)C(=O)N[C@@H](CC(C)C)C(=O)N[C@@H](CC(=O)O)C(=O)N[C@@H](C(=O)N1CCC[C@H]1C(=O)N[C@H](C(=O)N[C@@H](CCCCN)C(=O)N[C@@H](CC(C)C)C(=O)N[C@@H](CCCCNC(=O)COCCOCCNC(=O)COCCOCCNC(=O)CC[C@H](NC(=O)CCCCCCCCCCCCCCCCC(=O)O)C(=O)O)C(=O)N[C@@H](CCC(N)=O)C(=O)N[C@H](C(=O)N[C@@H](CC(C)C)C(=O)N[C@@H](CC(C)C)C(=O)N[C@@H](CCCCN)C(=O)N[C@@H](CCC(N)=O)C(=O)N[C@@H](CCC(=O)O)C(=O)N[C@@H](CCCNC(=N)N)C(=O)N[C@@H](CCC(N)=O)C(=O)N[C@@H](CCCCN)C(=O)NC(C)(C)C(=O)N[C@@H](CCC(N)=O)C(=O)N[C@@H](CCCNC(=N)N)C(=O)N[C@@H](CCC(N)=O)C(=O)N[C@@H](CCC(N)=O)C(=O)N[C@@H](C)C(=O)N[C@@H](CCC(=O)O)C(=O)N[C@@H](CCCCN)C(=O)N[C@@H](CC(N)=O)C(=O)N[C@@H](CCCCN)C(=O)N[C@@H](CCC(N)=O)C(=O)N[C@H](C(=O)N[C@@H](CC(C)C)C(=O)N[C@@H](C)C(=O)N[C@@H](CCC(N)=O)C(=O)N[C@H](C(N)=O)C(C)C)[C@@H](C)CC)[C@@H](C)CC)[C@@H](C)CC)C(C)C)C(C)C` [compound 135] (H-IVLSLD[dV]PIKLK([AEEA-AEEA-γGlu-C18 diacid])QILLKQERQK[Aib]QRQQAEKNKQILAQV-NH2; N-terminus assumed): in data set [1] (setting [4]), the “Apparent Rh [nm] 0 weeks” value worked out at 2.83 ± 0.12 nm, the “Scattering Intensity (I) [%] 0 weeks” value is on record as 99 ± 1%, the “Apparent Rh [nm] 4 weeks” value is on record as 3.01 ± 0.03 nm and the “Scattering Intensity (I) [%] 4 weeks” value came out at 99 ± 1%. Also, in data set [1] (setting [5]), the “Apparent Rh [nm] 0 weeks” value came out at 2.54 ± 0.16 nm, the “Scattering Intensity (I) [%] 0 weeks” value is on record as 100 ± 0%, the “Apparent Rh [nm] 4 weeks” value is reported as 2.63 ± 0.15 nm and the “Scattering Intensity (I) [%] 4 weeks” value was 100 ± 0%. The same molecule displayed a 50% effective concentration (EC50) in data set [2] of 0.13 nM. For the same molecule, in data set [3], the “Increase in FI (fluorescence intensity)” value was “No” and the “Lag time” value was above 45 h.
With `CC[C@H](C)[C@H](N)C(=O)N[C@H](C(=O)N[C@@H](CC(C)C)C(=O)N[C@@H](CO)C(=O)N[C@@H](CC(C)C)C(=O)N[C@@H](CC(=O)O)C(=O)N[C@@H](C(=O)N1CCC[C@H]1C(=O)N[C@H](C(=O)N[C@@H](CCCCN)C(=O)N[C@@H](CC(C)C)C(=O)N[C@@H](CCCCNC(=O)COCCOCCNC(=O)COCCOCCNC(=O)CC[C@H](NC(=O)CCCCCCCCCCCCCCCCC(=O)O)C(=O)O)C(=O)N[C@@H](CCC(N)=O)C(=O)N[C@H](C(=O)N[C@@H](CC(C)C)C(=O)N[C@@H](CC(C)C)C(=O)N[C@@H](CCCCN)C(=O)N[C@@H](CCC(N)=O)C(=O)N[C@@H](CCC(=O)O)C(=O)N[C@@H](CCCNC(=N)N)C(=O)N[C@@H](CCC(N)=O)C(=O)N[C@@H](CCCCN)C(=O)N[C@@H](CCCCN)C(=O)N[C@@H](CCC(N)=O)C(=O)N[C@@H](CCCNC(=N)N)C(=O)N[C@@H](CCC(=O)O)C(=O)N[C@@H](CCC(N)=O)C(=O)N[C@@H](C)C(=O)N[C@@H](CCC(=O)O)C(=O)N[C@@H](CCCCN)C(=O)N[C@@H](CC(N)=O)C(=O)N[C@@H](CCCCN)C(=O)N[C@@H](CCC(N)=O)C(=O)N[C@H](C(=O)N[C@@H](CC(C)C)C(=O)N[C@@H](CCC(=O)O)C(=O)N[C@@H](CCC(N)=O)C(=O)N[C@H](C(N)=O)C(C)C)[C@@H](C)CC)[C@@H](C)CC)[C@@H](C)CC)C(C)C)C(C)C` [compound 137] (H-IVLSLD[dV]PIKLK([AEEA-AEEA-γGlu-C18 diacid])QILLKQERQKKQREQAEKNKQILEQV-NH2; N-terminus assumed), the “Apparent Rh [nm] 0 weeks” value amounted to 3.31 ± 0.15 nm in data set [1] (setting [4]), 3.50 ± 0.03 nm in data set [1] (setting [6]), 2.66 ± 0.13 nm in data set [1] (setting [5]) and 2.38 ± 0.13 nm in data set [1] (setting [7]). For the same molecule, the “Scattering Intensity (I) [%] 0 weeks” value in data set [1] (setting [4]) was 94 ± 1%; in data set [1] (setting [6]) it was 100 ± 0%; in data set [1] (setting [5]) it was 84 ± 6%; in data set [1] (setting [7]), 98 ± 2%. Besides, the “Apparent Rh [nm] 4 weeks” value in data set [1] (setting [4]) was 3.34 ± 0.25 nm; in data set [1] (setting [6]), 3.60 ± 0.10 nm; in data set [1] (setting [5]), 2.65 ± 0.11 nm; in data set [1] (setting [7]) it was 2.59 ± 0.07 nm. Further, the “Scattering Intensity (I) [%] 4 weeks” value in data set [1] (setting [4]) was found to be 100 ± 0%; in data set [1] (setting [6]) it was 100 ± 0%; in data set [1] (setting [5]), 88 ± 9%; in data set [1] (setting [7]) it was 100 ± 0%. This molecule also came in with a 50% effective concentration (EC50) in data set [2] of 0.14 nM.
As to `CC[C@H](C)[C@H](N)C(=O)N[C@H](C(=O)N[C@@H](CC(C)C)C(=O)N[C@@H](CO)C(=O)N[C@@H](CC(C)C)C(=O)N[C@@H](CC(=O)O)C(=O)N[C@@H](C(=O)N1CCC[C@H]1C(=O)N[C@H](C(=O)N[C@@H](CCCCN)C(=O)N[C@@H](CC(C)C)C(=O)N[C@@H](CCCCNC(=O)COCCOCCNC(=O)COCCOCCNC(=O)CC[C@H](NC(=O)CCCCCCCCCCCCCCCCC(=O)O)C(=O)O)C(=O)N[C@@H](CCC(N)=O)C(=O)N[C@H](C(=O)N[C@@H](CC(C)C)C(=O)N[C@@H](CC(C)C)C(=O)N[C@@H](CCCCN)C(=O)N[C@@H](CCC(N)=O)C(=O)N[C@@H](CCC(=O)O)C(=O)N[C@@H](CCCNC(=N)N)C(=O)N[C@@H](CCC(N)=O)C(=O)N[C@@H](CCCCN)C(=O)N[C@@H](CCCCN)C(=O)N[C@@H](CCC(N)=O)C(=O)N[C@@H](CCCNC(=N)N)C(=O)N[C@@H](CCC(N)=O)C(=O)N[C@@H](CCC(N)=O)C(=O)N[C@@H](C)C(=O)N[C@@H](CCC(=O)O)C(=O)N[C@@H](CCCCN)C(=O)N[C@@H](CC(N)=O)C(=O)N[C@@H](CCCCN)C(=O)N[C@@H](CCC(N)=O)C(=O)N[C@H](C(=O)N[C@@H](CC(C)C)C(=O)N[C@@H](C)C(=O)N[C@@H](CCC(N)=O)C(=O)N[C@H](C(N)=O)C(C)C)[C@@H](C)CC)[C@@H](C)CC)[C@@H](C)CC)C(C)C)C(C)C` [compound 139] (H-IVLSLD[dV]PIKLK([AEEA-AEEA-γGlu-C18 diacid])QILLKQERQKKQRQQAEKNKQILAQV-NH2; N-terminus assumed), in data set [1] (setting [4]), the “Apparent Rh [nm] 0 weeks” value was 3.04 ± 0.08 nm, the “Scattering Intensity (I) [%] 0 weeks” value is 98 ± 1%, the “Apparent Rh [nm] 4 weeks” value turned out to be 3.13 ± 0.22 nm and the “Scattering Intensity (I) [%] 4 weeks” value came to 95 ± 4%. In data set [1] (setting [6]), the “Apparent Rh [nm] 0 weeks” value is 2.94 ± 0.32 nm, the “Scattering Intensity (I) [%] 0 weeks” value stood at 96 ± 5%, the “Apparent Rh [nm] 4 weeks” value is on record as 3.11 ± 0.14 nm and the “Scattering Intensity (I) [%] 4 weeks” value is listed as 93 ± 3%. Also, in data set [1] (setting [5]), the “Apparent Rh [nm] 0 weeks” value is 2.38 ± 0.23 nm, the “Scattering Intensity (I) [%] 0 weeks” value turned out to be 96 ± 3%, the “Apparent Rh [nm] 4 weeks” value is 2.56 ± 0.29 nm and the “Scattering Intensity (I) [%] 4 weeks” value is listed as 100 ± 0%. Also, the 50% effective concentration (EC50) in data set [2] worked out at 0.1 nM.
